Laboratory results reported in patent publication US20230174523A1, “BENZENESULFONAMIDE DERIVATIVES AS TRAP1 MODULATORS AND USES THEREOF” (Amathus Therapeutics, Inc., priority 2020, published 2023).
pEC50: −log10 of the molar value.

Molecular target: T1, TRAP1 enzyme (Homo sapiens, UniProt Q12931)
T1 sequence (Q12931 60-704): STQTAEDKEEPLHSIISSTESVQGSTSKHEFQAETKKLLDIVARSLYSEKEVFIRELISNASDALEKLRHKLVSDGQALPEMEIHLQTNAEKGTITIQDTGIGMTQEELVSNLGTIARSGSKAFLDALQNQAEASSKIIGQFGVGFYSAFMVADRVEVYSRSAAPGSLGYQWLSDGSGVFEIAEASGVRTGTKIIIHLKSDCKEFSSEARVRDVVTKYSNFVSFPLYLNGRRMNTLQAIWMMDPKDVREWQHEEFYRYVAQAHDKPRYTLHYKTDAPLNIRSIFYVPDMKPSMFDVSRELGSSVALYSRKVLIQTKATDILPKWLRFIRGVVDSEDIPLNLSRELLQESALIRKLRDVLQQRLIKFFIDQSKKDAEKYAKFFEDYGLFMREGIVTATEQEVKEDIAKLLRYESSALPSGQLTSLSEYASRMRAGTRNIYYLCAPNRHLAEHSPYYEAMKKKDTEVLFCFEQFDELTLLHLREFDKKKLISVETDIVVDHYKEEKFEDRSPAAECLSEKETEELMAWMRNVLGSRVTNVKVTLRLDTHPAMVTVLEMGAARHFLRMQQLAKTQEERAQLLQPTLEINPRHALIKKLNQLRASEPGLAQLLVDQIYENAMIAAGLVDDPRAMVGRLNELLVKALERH
Experiment: ADP Glo assay of TRAP1 ATPase activity
Assay type: biochemical
Details: for pEC50: TRAP1 ATPase activation, 150 nM Trap1, 20 μM ATP, geometric mean, read-out: ADP GLO DRC: GeoMean EC50; for Emax: read-out: ADP GLO DRC: Mean Emax
Outline: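 150 nM TRAP1 preincubated with compound (0.79–100 μM) 30 min at 37° C in Pipes pH 7.5 buffer (0.05 mM MgCl2, 40 mM KCl), then 20 μM ATP added for 60 min at 37° C. ADP quantified by ADP-Glo luminescence against ATP/ADP standard curve. Emax and EC50 from sigmoidal fit.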

| pEC50 | Emax [%] | SMILES |
| --- | --- | --- |
| > 5.00 | 160 to 199 | COc1ccc(NC(=O)c2cc(-c3ccccc3)no2)cc1S(=O)(=O)Nc1c(C)cccc1C [Compound 1229] |
| 4.70 to 5.00 | > 300 | COc1ccc(NC(=O)c2ccc3nc(C)sc3c2)cc1S(=O)(=O)Nc1c(C)cccc1C [Compound 1231] |
| 4.70 to 5.00 | 200 to 300 | COc1ccc(NC(=O)c2cccc(-n3ccnc3)c2)cc1S(=O)(=O)Nc1c(C)cccc1C [Compound 1232] |
| 4.70 to 5.00 | 160 to 199 | COc1ccc(NC(=O)c2ccc3ncsc3c2)cc1S(=O)(=O)Nc1c(C)cccc1C [Compound 1233] |
| > 5.00 | 160 to 199 | COc1ccc(NC(=O)c2ccccc2Oc2ccccc2)cc1S(=O)(=O)Nc1c(C)cccc1C [Compound 1234] |
| 4.70 to 5.00 | 200 to 300 | COc1ccc(NC(=O)c2n[nH]c3c2CCCC3)cc1S(=O)(=O)Nc1c(C)cccc1C [Compound 1235] |
| 4.00 to 4.70 | 123 to 159 | COc1ccc(NC(=O)c2ccc3ncoc3c2)cc1S(=O)(=O)Nc1c(C)cccc1C [Compound 1236] |
| > 5.00 | 160 to 199 | COc1ccc(NC(=O)c2ccc(Cn3cc(Cl)cn3)cc2)cc1S(=O)(=O)Nc1c(C)cccc1C [Compound 1237] |
| 4.00 to 4.70 | 123 to 159 | COc1ccc(NC(=O)c2ccc3ncn(C)c3c2)cc1S(=O)(=O)Nc1c(C)cccc1C [Compound 1238] |
| 4.70 to 5.00 | 200 to 300 | COc1ccc(NC(=O)c2ccc3nsnc3c2)cc1S(=O)(=O)Nc1c(C)cccc1C [Compound 1240] |
| 4.70 to 5.00 | 200 to 300 | COc1ccc(NC(=O)c2ccc3ncccc3c2)cc1S(=O)(=O)Nc1c(C)cccc1C [Compound 1241] |
| > 5.00 | > 300 | COc1ccc(NC(=O)c2cccc(-c3ccnn3C)c2)cc1S(=O)(=O)Nc1c(C)cccc1C [Compound 1242] |
| > 5.00 | 200 to 300 | COc1ccc(NC(=O)c2cccc(-c3noc(C)n3)c2)cc1S(=O)(=O)Nc1c(C)cccc1C [Compound 1243] |
| 4.70 to 5.00 | 123 to 159 | COc1ccc(NC(=O)c2c(C)noc2-c2ccccc2)cc1S(=O)(=O)Nc1c(C)cccc1C [Compound 1244] |
| 4.00 to 4.70 | 160 to 199 | COc1ccc(NC(=O)c2cccc(-c3cncnc3)c2)cc1S(=O)(=O)Nc1c(C)cccc1C [Compound 1248] |
| 4.70 to 5.00 | 160 to 199 | COc1ccc(NC(=O)c2cccc(-n3nc(C)cc3C)c2)cc1S(=O)(=O)Nc1c(C)cccc1C [Compound 1249] |
| 4.70 to 5.00 | 160 to 199 | COc1ccc(NC(=O)c2cccc3nccnc23)cc1S(=O)(=O)Nc1c(C)cccc1C [Compound 1251] |
| > 5.00 | 200 to 300 | COc1ccc(NC(=O)c2cc3c(C)nn(C)c3s2)cc1S(=O)(=O)Nc1c(C)cccc1C [Compound 1252] |
| 4.00 to 4.70 | 160 to 199 | CCS(=O)(=O)c1ccc(OC)c(C(=O)Nc2ccc(OC)c(S(=O)(=O)Nc3c(C)cccc3C)c2)c1 [Compound 1254] |
| 4.00 to 4.70 | 123 to 159 | Cn1cnc2cc(C(=O)Nc3ccc(F)c(S(=O)(=O)Nc4ccc(Cl)cc4)c3)ccc2c1=O [Compound 1256] |
| > 5.00 | 200 to 300 | COc1ccc(NC(=O)c2cc(-c3ccccc3)[nH]n2)cc1S(=O)(=O)Nc1c(C)cccc1C [Compound 1258] |
| 4.00 to 4.70 | 123 to 159 | COc1ccc(NC(=O)c2cccc(-n3cnnn3)c2)cc1S(=O)(=O)Nc1c(C)cccc1C [Compound 1259] |
| 4.00 to 4.70 | 123 to 159 | Cn1c(=O)n(C)c2cc(C(=O)Nc3ccc(F)c(S(=O)(=O)Nc4ccc(Cl)cc4)c3)ccc21 [Compound 1261] |
| > 5.00 | 200 to 300 | COc1ccc(NC(=O)c2cn(Cc3ccccc3)nn2)cc1S(=O)(=O)Nc1c(C)cccc1C [Compound 1265] |
| 4.00 to 4.70 | 123 to 159 | COc1ccc(NC(=O)c2ccncc2-c2ccccc2)cc1S(=O)(=O)Nc1c(C)cccc1C [Compound 1267] |
| 4.00 to 4.70 | 123 to 159 | Cc1nc2cccc(C(=O)Nc3ccc(F)c(S(=O)(=O)Nc4ccc(Cl)cc4)c3)c2s1 [Compound 1268] |
| 4.70 to 5.00 | 160 to 199 | COc1ccc(NC(=O)c2ccc3sc(C)nc3c2)cc1S(=O)(=O)Nc1c(C)cccc1C [Compound 1269] |

| pEC50 | Emax [%] | SMILES |
| --- | --- | --- |
| 4.70 to 5.00 | 200 to 300 | COc1ccc(NC(=O)c2ncn(-c3ccccc3)n2)cc1S(=O)(=O)Nc1c(C)cccc1C [Compound 1270] |
| > 5.00 | 160 to 199 | COc1ccc(NC(=O)c2cccc(-c3ccccn3)c2)cc1S(=O)(=O)Nc1c(C)cccc1C [Compound 1271] |
| 4.00 to 4.70 | 123 to 159 | COc1ccc(NC(=O)c2ccc3ocnc3c2)cc1S(=O)(=O)Nc1c(C)cccc1C [Compound 1272] |
| 4.00 to 4.70 | 123 to 159 | COc1ccc(NC(=O)c2cc(Cl)ncc2C(F)(F)F)cc1S(=O)(=O)Nc1c(C)cccc1C [Compound 1274] |
| 4.00 to 4.70 | 123 to 159 | COc1ccc(NC(=O)c2ncccc2C(=O)c2ccccc2)cc1S(=O)(=O)Nc1c(C)cccc1C [Compound 1275] |
| > 5.00 | 200 to 300 | COc1ccc(NC(=O)c2c(-c3ccccc3)noc2C)cc1S(=O)(=O)Nc1c(C)cccc1C [Compound 1279] |
| 4.00 to 4.70 | 123 to 159 | CCn1nc(C(C)C)cc1C(=O)Nc1ccc(F)c(S(=O)(=O)Nc2ccc(Cl)cc2)c1 [Compound 1282] |
| 4.00 to 4.70 | 123 to 159 | CCN1CCN(c2ccc(C(=O)Nc3ccc(OC)c(S(=O)(=O)Nc4c(C)cccc4C)c3)cc2)CC1 [Compound 1283] |
| > 5.00 | 200 to 300 | COc1ccc(NC(=O)c2ccnc(-c3ccccc3)c2)cc1S(=O)(=O)Nc1c(C)cccc1C [Compound 1285] |
| 4.00 to 4.70 | 123 to 159 | CCc1cc(C(=O)Nc2ccc(F)c(S(=O)(=O)Nc3ccc(Cl)cc3)c2)cc(C)n1 [Compound 1286] |
| 4.00 to 4.70 | 123 to 159 | COc1ccc(NC(=O)c2cc3cnccc3s2)cc1S(=O)(=O)Nc1c(C)cccc1C [Compound 1287] |
| 4.00 to 4.70 | 160 to 199 | COc1ccc(NC(=O)c2c[nH]c3cnccc23)cc1S(=O)(=O)Nc1c(C)cccc1C [Compound 1288] |
| > 5.00 | 160 to 199 | COc1ccc(NC(=O)c2cccc(-c3csc(C)n3)c2)cc1S(=O)(=O)Nc1c(C)cccc1C [Compound 1290] |
| 4.70 to 5.00 | 200 to 300 | COc1ccc(NC(=O)c2cnn(-c3ccccc3)c2)cc1S(=O)(=O)Nc1c(C)cccc1C [Compound 1292] |
| > 5.00 | 160 to 199 | COc1ccc(NC(=O)c2coc(-c3ccccc3)n2)cc1S(=O)(=O)Nc1c(C)cccc1C [Compound 1301] |
| > 5.00 | 160 to 199 | COc1ccc(NC(=O)c2c[nH]c(-c3c(F)cccc3F)n2)cc1S(=O)(=O)Nc1ccc(Br)cc1 [Compound 1328] |
| > 5.00 | 200 to 300 | COc1ccc(NC(=O)c2cnc3ccccc3c2)cc1S(=O)(=O)Nc1c(C)cccc1C [Compound 1330] |
| 4.00 to 4.70 | 123 to 159 | CCc1ccc(NC(=O)c2cnn(-c3ccc(Cl)cc3)c2C)cc1S(=O)(=O)Nc1ccc(Cl)cc1 [Compound 1335] |
| 4.00 to 4.70 | 200 to 300 | COc1ccc(NC(=O)c2ncc(-c3ccccc3)o2)cc1S(=O)(=O)Nc1c(C#N)cccc1C(F)(F)F [Compound 1343, N-(3-(N-(2-cyano-6-(trifluoromethyl)phenyl)sulfamoyl)-4-methoxyphenyl)-5-phenyloxazole-2-carboxamide] |
| > 5.00 | 160 to 199 | COc1ccc(NC(=O)c2cn(C)c3ncccc23)cc1S(=O)(=O)Nc1ccc(Cl)cc1 [Compound 1345] |
| 4.70 to 5.00 | 160 to 199 | CCc1ccc(NC(=O)c2cccc3ncn(C)c23)cc1S(=O)(=O)Nc1c(C)cccc1C [Compound 1353] |
| 4.00 to 4.70 | 160 to 199 | COc1ccc(NC(=O)c2cc3ccccc3[n+](C)c2)cc1S(=O)(=O)Nc1c(C)cccc1C [Compound 1356, 3-((3-(N-(2,6-dimethylphenyl)sulfamoyl)-4-methoxyphenyl)carbamoyl)-1-methylquinolin-1-ium] |
| 4.70 to 5.00 | 160 to 199 | COc1ccc(NC(=O)c2ncc(-c3ccccc3)o2)cc1S(=O)(=O)Nc1c(C)cccc1C#N [Compound 1357] |
| 4.70 to 5.00 | 200 to 300 | COc1ccc(NC(=O)c2ccc3cn(C)nc3c2)cc1S(=O)(=O)Nc1c(C)cccc1C [Compound 1362] |
| 4.00 to 4.70 | > 300 | COc1ccc(NC(=O)c2ccc3cnn(C)c3c2)cc1S(=O)(=O)Nc1c(C)cccc1C [Compound 1370] |
| 4.70 to 5.00 | 160 to 199 | COc1ccc(NC(=O)c2cc3c(C)nn(C)c3s2)cc1S(=O)(=O)Nc1c(Cl)cccc1Cl [Compound 1375] |
